{
  "source": "patent US20190022167A1",
  "about": "“METHODS AND COMPOSITIONS FOR THE PREVENTION AND TREATMENT OF DUCHENNE MUSCULAR DYSTROPHY” (priority 2016, published 2019)",
  "key": {"[1]": {"tested_on": "several mammalian cell types", "details": "cited from earlier work"}, "[2]": {"tested_on": "subjects suspected of having or diagnosed as having DMD", "assay": "Treatment of DMD in humans (Example 1)", "format": "in vivo, human", "details": "for Effect of combination with one or more additional therapeutic agents: compared to peptides or additional agents alone, expected; for Severity of symptoms associated with DMD: daily 1%, 5% or 10% solution, predicted", "from_the_text": "(§1) Subjects suspected of having or diagnosed as having DMD receive daily administrations of 1%, 5% or 10% solution of aromatic-cationic peptide, such as 2′6′-Dmt-D-Arg-Phe-Lys-NH2, Phe-D-Arg-Phe-Lys-NH2, or D-Arg-2′6′-Dmt-Lys-Phe-NH2, or a pharmaceutically acceptable salt thereof, such as acetate, tartrate, hydrochloride salt, or trifluoroacetate salt, alone or in combination with one or more additional therapeutic agents for the treatment or prevention of DMD. Peptides and/or additional therapeutic agents selected from the group consisting of: corticosteroids, Oxandrolone, ACE inhibitors, P188(Poloxamer 188), beta-blockers, diuretics, angiotensin receptor blockers (ARBs), idebenone, alendronate, calcium with vitamin D, albuterol, dantrolene, pentoxifylline, carnitine, Coenzyme Q10, creatine, fish oil, green tea extracts, Vitamin E, PTC-124 (PTC Therapeutics Inc., South Plainfield, N.J.), AVI-4658 phosphorodiamidate morpholino oligomer, azathioprine and cyclosporine, are administered orally, topically, systemically, intravenously, subcutaneously, intraperitoneally, or intramuscularly according to methods known in the art. Dosages of the one or more additional therapeutic agents will range between 0.1 mg/kg to 50 mg/kg. Subjects will be evaluated weekly for the presence and/or severity of signs and symptoms associated with DMD, including, but not limited to, e.g., progressive proximal weakness with onset in the legs and pelvis, hyperlordosis with wide-based gait, hypertrophy of weak muscles, pseudohypertrophy (enlargement of calf and deltoid muscles with fat and fibrotic tissue), reduced muscle contractility on electrical stimulation in advanced stages of the disease, delayed motor milestones, progressive inability to ambulate, heel cord contractures, paralysis, fatigue, skeletal deformities including scoliosis, muscle fiber deformities, cardiomyopathy, congestive heart failure or arrhythmia, muscular atrophy, and respiratory disorders. Treatments are maintained until such a time as one or more signs or symptoms of DMD are ameliorated or eliminated."}, "[3]": {"tested_on": "subjects at risk of having DMD", "assay": "Prevention of DMD in humans (Example 2)", "format": "in vivo, human", "details": "for Effect of combination with one or more additional therapeutic agents: compared to peptides or additional agents alone, expected; for Onset of DMD: daily 1%, 5% or 10% solution, predicted", "from_the_text": "as §1, with “at risk” for “suspected”, “of” for “of having or diagnosed as”, “P188 (Poloxamer” for “P188(Poloxamer”, “disorders.” for “disorders. Treatments are maintained until such a time as one or more signs or symptoms of DMD are ameliorated or eliminated.”"}, "DBA/2J-mdx mice [4]": {"tested_on": "DBA/2J-mdx mice", "assay": "Left ventricular mitochondrial H2O2 emission in permeabilized muscle fiber bundles (spectrofluorometry, Amplex UltraRed) after 12 weeks of treatment", "format": "in vivo, mouse", "details": "5 mg/kg daily subcutaneous for 12 weeks", "method": "(§2) Left ventricular mitochondrial H2O2 emission (measured by spectrofluorometry; Amplex UltraRed fluorophore) and respiration (measured by high-resolution respirometry; Oroboros Oxygraph) were assessed in permeabilized muscle fiber bundles (PmFB) from DBA/2J-mdx mice (DMD mice) that were about 4 weeks of age, DBA/2J wildtype mice (wt mice) that were about 4 weeks of age, DMD mice treated with daily subcutaneous injections of Phe-D-Arg-Phe-Lys-NH2 (5mg/kg) for 12 weeks (treated DMD mice), and DMD mice treated with daily subcutaneous injections of […] for 12 weeks (untreated DMD mice). H2O2 emission was measured in the presence of physiological ADP (25 μM). ADP is a suppressor of H2O2 emission during respiration and is affected by the phosphate-shuttling activity of mitochondrial creatine kinase (mtCK). The effect of mtCK was assessed by saturating creatine (Cr) in vitro."}, "DBA/2J-mdx mice [5]": {"tested_on": "DBA/2J-mdx mice", "assay": "Left ventricular mitochondrial respiration in permeabilized muscle fiber bundles (high-resolution respirometry, Oroboros Oxygraph) after 12 weeks of treatment", "format": "in vivo, mouse", "details": "5 mg/kg daily subcutaneous for 12 weeks; for ADP, complex I-supported respiration: treated DMD mice", "method": "as §2"}},
  "note": "Where no end group is shown, it is not given here. [ ]: non-standard residue; d: D form.",
  "data": [
    {"substance": "2′6′-Dmt-D-Arg-Phe-Lys-NH2", "values": [
      {"measurement": "Penetration of the plasma membrane", "setting": "[1]", "value": "readily penetrates the plasma membrane of several mammalian cell types in an energy-independent manner"},
      {"measurement": "Effect of combination with one or more additional therapeutic agents", "setting": "[2]", "value": "synergistic effects"},
      {"measurement": "Severity of symptoms associated with DMD", "setting": "[2]", "value": "reduced severity or elimination of symptoms associated with DMD"},
      {"measurement": "Effect of combination with one or more additional therapeutic agents", "setting": "[3]", "value": "synergistic effects"},
      {"measurement": "Onset of DMD", "setting": "[3]", "value": "delayed onset of DMD, or prevention of onset of DMD"}
    ]},
    {"substance": "D-Arg-2′6′-Dmt-Lys-Phe-NH2", "values": [
      {"measurement": "Effect of combination with one or more additional therapeutic agents", "setting": "[2]", "value": "synergistic effects"},
      {"measurement": "Severity of symptoms associated with DMD", "setting": "[2]", "value": "reduced severity or elimination of symptoms associated with DMD"},
      {"measurement": "Effect of combination with one or more additional therapeutic agents", "setting": "[3]", "value": "synergistic effects"},
      {"measurement": "Onset of DMD", "setting": "[3]", "value": "delayed onset of DMD, or prevention of onset of DMD"}
    ]},
    {"substance": "F[dR]FK-NH2", "values": [
      {"measurement": "mtCK-dependent ADP suppression of H2O2 emission, treated vs untreated DMD mice", "setting": "DBA/2J-mdx mice [4]", "value": "improved"},
      {"measurement": "ADP-suppression of Complex I-supported H2O2, % of emission at 0 μM ADP/O2 consumed", "setting": "DBA/2J-mdx mice [4]; +Cr, 25 μM ADP, treated DMD mice", "value": "12+/−1%"},
      {"measurement": "ADP-suppression of Complex I-supported H2O2, % of 0 μM ADP/O2 consumed", "setting": "DBA/2J-mdx mice [4]; —Cr, 25 μM ADP, treated DMD mice", "value": "40+/−11%"},
      {"measurement": "Respiration, treated vs untreated DMD mice", "setting": "DBA/2J-mdx mice [5]; +Cr or —Cr", "value": "did not change respiration"},
      {"measurement": "ADP, complex I-supported respiration", "setting": "DBA/2J-mdx mice [5]; +Cr", "value": "111.4+/−12.0 pmol•s^−1•mg wet wt^−1"},
      {"measurement": "ADP, complex I-supported respiration", "setting": "DBA/2J-mdx mice [5]; —Cr", "value": "59.6+/−7.4 pmol•s^−1•mg wet wt^−"},
      {"measurement": "Effect of combination with one or more additional therapeutic agents", "setting": "[2]", "value": "synergistic effects"},
      {"measurement": "Severity of symptoms associated with DMD", "setting": "[2]", "value": "reduced severity or elimination of symptoms associated with DMD"},
      {"measurement": "Effect of combination with one or more additional therapeutic agents", "setting": "[3]", "value": "synergistic effects"},
      {"measurement": "Onset of DMD", "setting": "[3]", "value": "delayed onset of DMD, or prevention of onset of DMD"}
    ]}
  ]
}
